Results published in ChEMBL document CHEMBL5104161, “Novel analgesic/anti-inflammatory agents: 1,5-Diarylpyrrole nitrooxyethyl sulfides and related compounds as Cyclooxygenase-2 inhibitors containing a nitric oxide donor moiety endowed with vasorelaxant properties” (Eur J Med Chem, 2022).
pIC50: −log10 of the molar value.

Legend:
J774 = test: Ratio IC50 for inhibition of COX1 in mouse J774 cells over inhibition of COX2 in mouse J774 cells; type: cell-based
Aorta = test: Vasorelaxant activity in Sprague-Dawley rat aortic rings assessed as reduction in L-phenylephrine-induced contractions at 0.01 to 100 uM relative to control; type: functional; settings: dose 0.01-100 µM
[1] = molecular target: T1, Prostaglandin G/H synthase 1 (Mus musculus, UniProt P22437); test: Inhibition of COX1 in mouse J774 cells using arachidonic acid as substrate preincubated for 15 mins followed substrate addition and assessed as inhibition of PGE2 production after 30 mins by enzyme immuno-assay (EIA); type: cell-based
T1 sequence (P22437 whole entry): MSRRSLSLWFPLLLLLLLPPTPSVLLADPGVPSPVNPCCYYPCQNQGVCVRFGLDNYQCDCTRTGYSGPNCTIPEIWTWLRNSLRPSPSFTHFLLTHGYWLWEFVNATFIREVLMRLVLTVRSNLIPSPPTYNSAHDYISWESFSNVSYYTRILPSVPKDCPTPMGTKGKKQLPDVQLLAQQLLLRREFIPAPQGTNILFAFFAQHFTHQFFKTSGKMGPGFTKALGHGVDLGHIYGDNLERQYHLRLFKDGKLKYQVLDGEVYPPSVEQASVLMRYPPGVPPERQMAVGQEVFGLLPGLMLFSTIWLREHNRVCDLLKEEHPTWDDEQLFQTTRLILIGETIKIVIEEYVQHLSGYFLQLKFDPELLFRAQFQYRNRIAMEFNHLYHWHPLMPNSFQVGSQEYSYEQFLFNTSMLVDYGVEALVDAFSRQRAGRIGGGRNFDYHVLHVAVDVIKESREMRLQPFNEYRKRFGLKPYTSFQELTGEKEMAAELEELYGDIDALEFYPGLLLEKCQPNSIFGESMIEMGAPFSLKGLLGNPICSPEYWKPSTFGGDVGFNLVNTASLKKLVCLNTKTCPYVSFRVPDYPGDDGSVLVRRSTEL

[2] = molecular target: T2, Prostaglandin G/H synthase 2 (Mus musculus, UniProt Q05769); test: Inhibition of COX2 in LPS-stimulated mouse J774 cells assessed as inhibition of PGE2 production and measured after 24 hrs by enzyme immuno-assay (EIA); type: cell-based
T2 sequence (Q05769 whole entry): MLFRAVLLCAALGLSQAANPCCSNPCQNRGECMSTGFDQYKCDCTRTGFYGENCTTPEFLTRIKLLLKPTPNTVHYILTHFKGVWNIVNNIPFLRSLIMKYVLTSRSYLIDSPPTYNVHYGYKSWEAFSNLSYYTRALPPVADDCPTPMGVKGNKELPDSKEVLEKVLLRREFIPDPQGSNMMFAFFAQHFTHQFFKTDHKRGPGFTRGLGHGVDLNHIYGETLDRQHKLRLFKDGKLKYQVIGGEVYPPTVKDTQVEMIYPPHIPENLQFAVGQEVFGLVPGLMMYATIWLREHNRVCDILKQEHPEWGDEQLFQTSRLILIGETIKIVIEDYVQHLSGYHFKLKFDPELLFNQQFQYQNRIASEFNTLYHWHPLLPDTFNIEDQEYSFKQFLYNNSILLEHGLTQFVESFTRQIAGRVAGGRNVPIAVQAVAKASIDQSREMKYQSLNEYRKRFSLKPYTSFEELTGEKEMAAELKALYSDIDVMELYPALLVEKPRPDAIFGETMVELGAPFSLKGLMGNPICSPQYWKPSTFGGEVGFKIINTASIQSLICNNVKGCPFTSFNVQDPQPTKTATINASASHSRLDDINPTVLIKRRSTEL

Mus musculus [3] = test: Analgesic activity against acetic acid-induced male CD1 albino mouse model assessed as number of writhes at 10 mg/kg, po measured after 30 mins by abdominal constriction test; type: functional; settings: 0.5 h
Mus musculus [4] = test: Analgesic activity against acetic acid-induced male CD1 albino mouse model assessed as number of writhes at 20 mg/kg, po measured after 30 mins by abdominal constriction test; type: functional; settings: 0.5 h
Mus musculus [5] = test: Analgesic activity against acetic acid-induced male CD1 albino mouse model assessed as number of writhes at 30 mg/kg, po measured after 30 mins by abdominal constriction test; type: functional; settings: 0.5 h
Rattus norvegicus [6] = test: Anti-hyperalgesic activity in carrageenan-induced hyperalgesia male Sprague-Dawley rat model assessed as paw withdrawal threshold at 20 mg/kg, po measured 15 mins after compound administration by paw pressure test; type: functional; settings: 0.25 h
Rattus norvegicus [7] = test: Anti-hyperalgesic activity in carrageenan-induced hyperalgesia male Sprague-Dawley rat model assessed as paw withdrawal threshold at 20 mg/kg, po measured 30 mins after compound administration by paw pressure test; type: functional; settings: 0.5 h
Rattus norvegicus [8] = test: Anti-hyperalgesic activity in carrageenan-induced hyperalgesia male Sprague-Dawley rat model assessed as paw withdrawal threshold at 20 mg/kg, po measured 45 mins after compound administration by paw pressure test; type: functional; settings: 0.75 h
Rattus norvegicus [9] = test: Anti-hyperalgesic activity in carrageenan-induced hyperalgesia male Sprague-Dawley rat model assessed as paw withdrawal threshold at 20 mg/kg, po measured 60 mins after compound administration by paw pressure test; type: functional; settings: 1 h
Rattus norvegicus [10] = test: Anti-hyperalgesic activity in carrageenan-induced hyperalgesia male Sprague-Dawley rat model assessed as paw edema volume at 20 mg/kg, po measured 30 mins after compound administration by plethysmometer analysis; type: functional; settings: 0.5 h
[11] = Intrinsic clearance in human liver microsomes at 1 uM preincubated for 10 mins and measured up to 60 mins by LC-MS/MS analysis; type: ADME, Microsome; settings: read-out: CLH
[12] = Half-life in human liver microsomes at 1 uM preincubated for 10 mins and measured up to 60 mins by LC-MS/MS analysis; type: ADME, Microsome
[13] = Intrinsic clearance in mouse liver microsomes at 1 uM preincubated for 10 mins and measured up to 60 mins by LC-MS/MS analysis; type: ADME, Microsome; settings: read-out: CLH
[14] = Half-life in mouse liver microsomes at 1 uM preincubated for 10 mins and measured up to 60 mins by LC-MS/MS analysis; type: ADME, Microsome
Rattus norvegicus [15] = test: Anti-hyperalgesic activity in carrageenan-induced hyperalgesia male Sprague-Dawley rat model assessed as paw withdrawal threshold at 10 mg/kg, po measured 15 mins after compound administration by paw pressure test; type: functional; settings: 0.25 h
Rattus norvegicus [16] = test: Anti-hyperalgesic activity in carrageenan-induced hyperalgesia male Sprague-Dawley rat model assessed as paw withdrawal threshold at 10 mg/kg, po measured 30 mins after compound administration by paw pressure test; type: functional; settings: 0.5 h
Rattus norvegicus [17] = test: Anti-hyperalgesic activity in carrageenan-induced hyperalgesia male Sprague-Dawley rat model assessed as paw withdrawal threshold at 10 mg/kg, po measured 45 mins after compound administration by paw pressure test; type: functional; settings: 0.75 h
Rattus norvegicus [18] = test: Anti-hyperalgesic activity in carrageenan-induced hyperalgesia male Sprague-Dawley rat model assessed as paw withdrawal threshold at 10 mg/kg, po measured 60 mins after compound administration by paw pressure test; type: functional; settings: 1 h
Rattus norvegicus [19] = test: Anti-hyperalgesic activity in carrageenan-induced hyperalgesia male Sprague-Dawley rat model assessed as paw edema volume at 10 mg/kg, po measured 30 mins after compound administration by plethysmometer analysis; type: functional; settings: 0.5 h

| SMILES | Ratio IC50 (J774) | Efficacy (Aorta) [%] | pIC50 [1] | pIC50 [2] | Activity (Mus musculus [3]) | Activity (Mus musculus [4]) | Activity (Mus musculus [5]) | Activity (Rattus norvegicus [6]) [g] | Activity (Rattus norvegicus [7]) [g] | Activity (Rattus norvegicus [8]) [g] | Activity (Rattus norvegicus [9]) [g] | Activity (Rattus norvegicus [10]) [mL] | also measured |
| --- | --- | --- | --- | --- | --- | --- | --- | --- | --- | --- | --- | --- | --- |
| Cc1c(CCOCCO[N+](=O)[O-])cc(-c2ccc(S(C)(=O)=O)cc2)n1-c1ccc(F)cc1 | > 714 | 59 |  |  |  |  |  |  |  |  |  |  |  |
| Cc1c(CCSCCO)cc(-c2ccc(S(C)(=O)=O)cc2)n1-c1ccc(F)c(F)c1 | > 588 |  | < 5.00 | 7.77 | 23.8 | 19.6 | 17.4 | 37.8 | 46.6 | 45.3 | 39.6 | 2.09 |  |
| Cc1c(CC[S+]([O-])CCO[N+](=O)[O-])cc(-c2ccc(S(C)(=O)=O)cc2)n1-c1ccc(F)c(F)c1 (centres undefined) | > 3330 | 59 | < 5.00 | 8.52 | 25.9 | 20.1 | 21.3 | 39.8 | 48.2 | 44.2 | 38.3 | 2.2 |  |
| Cc1c(CCOCCO)cc(-c2ccc(S(C)(=O)=O)cc2)n1-c1ccc(F)c(F)c1 | > 23.8 |  |  |  |  |  |  |  |  |  |  |  |  |
| Cc1c(CC[S+]([O-])CCO)cc(-c2ccc(S(C)(=O)=O)cc2)n1-c1ccc(F)c(F)c1 (centres undefined) | > 71.4 |  | < 5.00 | 6.85 |  |  |  |  |  |  |  |  |  |
| Cc1c(CCOCCO[N+](=O)[O-])cc(-c2ccc(S(C)(=O)=O)cc2)n1-c1ccccc1 | > 588 |  |  |  |  |  |  |  |  |  |  |  |  |
| CCOc1ccc2ccc(=O)oc2c1 |  |  |  |  |  |  |  |  |  |  |  |  | microsomal CLint at 1 µM [11]: 113 µL/min/mg; half-life at 1 µM [12]: 12.6 min; microsomal CLint at 1 µM [13]: 297 µL/min/mg; half-life at 1 µM [14]: 4.7 min |
| Cc1c(CC[S+]([O-])CCO)cc(-c2ccc(S(C)(=O)=O)cc2)n1-c1ccc(F)cc1 (centres undefined) | > 11 |  | < 5.00 | 6.04 |  |  |  |  |  |  |  |  | microsomal CLint at 1 µM [11]: 3.2 µL/min/mg; half-life at 1 µM [12]: 470 min; microsomal CLint at 1 µM [13]: 9.7 µL/min/mg; half-life at 1 µM [14]: 142 min |
| Cc1c(CCSCCO[N+](=O)[O-])cc(-c2ccc(S(C)(=O)=O)cc2)n1-c1ccccc1 | > 345 | 59 | < 5.00 | 7.54 |  |  |  |  |  |  |  |  |  |
| Cc1c(CC[S+]([O-])CCO)cc(-c2ccc(S(C)(=O)=O)cc2)n1-c1ccccc1 (centres undefined) | > 31.2 |  | < 5.00 | 6.49 |  |  |  |  |  |  |  |  |  |
| Cc1c(CC[S+]([O-])CCO[N+](=O)[O-])cc(-c2ccc(S(C)(=O)=O)cc2)n1-c1ccc(F)cc1 (centres undefined) | > 2000 |  | < 5.00 | 8.30 | 29.2 | 21.8 | 18 | 42.3 | 47.2 | 46.1 | 36.3 | 2.25 | microsomal CLint at 1 µM [11]: 39.9 µL/min/mg; half-life at 1 µM [12]: 34.7 min; microsomal CLint at 1 µM [13]: 40.3 µL/min/mg; half-life at 1 µM [14]: 35.1 min |
| Cc1c(CCSCCO)cc(-c2ccc(S(C)(=O)=O)cc2)n1-c1ccc(F)cc1 | > 1250 |  | < 5.00 | 8.10 | 26.5 | 23.1 | 21.5 | 41.5 | 48.2 | 48.7 | 38.2 | 2.22 | microsomal CLint at 1 µM [11]: 39.2 µL/min/mg; half-life at 1 µM [12]: 36.2 min; microsomal CLint at 1 µM [13]: 73.2 µL/min/mg; half-life at 1 µM [14]: 19.2 min |
| Cc1c(CCSCCO[N+](=O)[O-])cc(-c2ccc(S(C)(=O)=O)cc2)n1-c1ccc(F)cc1 | > 1110 | 59 | < 5.00 | 8.05 | 24.2 | 20.5 | 20.6 | 39.9 | 45.9 | 44.7 | 37.5 | 2.18 | microsomal CLint at 1 µM [11]: 132 µL/min/mg; half-life at 1 µM [12]: 10.5 min; microsomal CLint at 1 µM [13]: 61.2 µL/min/mg; half-life at 1 µM [14]: 22.8 min |
| Cc1ccc(-c2cc(C(F)(F)F)nn2-c2ccc(S(N)(=O)=O)cc2)cc1 [CELECOXIB] |  |  |  |  |  |  |  |  |  |  |  |  | Activity (Rattus norvegicus [15]): 48.5 g; Activity (Rattus norvegicus [16]): 51.3 g; Activity (Rattus norvegicus [17]): 54 g; Activity (Rattus norvegicus [18]): 46.7 g; Activity (Rattus norvegicus [19]): 1.56 mL |
| Cc1c(CC[S+]([O-])CCO[N+](=O)[O-])cc(-c2ccc(S(C)(=O)=O)cc2)n1-c1ccccc1 (centres undefined) | > 135 | 59 | < 5.00 | 7.13 |  |  |  |  |  |  |  |  |  |
| Cc1c(CCSCCO)cc(-c2ccc(S(C)(=O)=O)cc2)n1-c1ccccc1 | > 400 |  | < 5.00 | 7.60 |  |  |  |  |  |  |  |  |  |
| Cc1c(CCSCCO[N+](=O)[O-])cc(-c2ccc(S(C)(=O)=O)cc2)n1-c1ccc(F)c(F)c1 | > 625 | 59 | < 5.00 | 7.80 | 22.5 | 19 | 20.7 | 40.6 | 46.1 | 45.7 | 37.1 | 2.31 |  |
| Cc1c(CCOCCO[N+](=O)[O-])cc(-c2ccc(S(C)(=O)=O)cc2)n1-c1ccc(F)c(F)c1 | > 10.9 |  |  |  |  |  |  |  |  |  |  |  |  |
